Results on four molecules are retold here after publication PMC8533202, “Design of Inhibitors of the Intrinsically Disordered Protein NUPR1: Balance between Drug Affinity and Target Function” (Biomolecules, 2021).

“And” between values parts separate entries of the source, which are not always exact repeats. Identical values can stand only once.

The target of one assay is T1, NUPR1 (Homo sapiens, UniProt O60356).
T1 construct: made in house
T1 sequence (O60356 1-82): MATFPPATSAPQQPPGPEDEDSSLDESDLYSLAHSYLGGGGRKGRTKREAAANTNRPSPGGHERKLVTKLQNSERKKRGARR
Kind of assay: Isothermal titration calorimetry (ITC) binding to NUPR1. The settings on record: 25 °C; for N (stoichiometry) / ΔG / ΔH / −TΔS: pH 7.0; for Ka / Kd: sodium phosphate 20 mM, pH 7.0, 2% DMSO; for Kd: read-out: Kd (=1/Ka). How it is done:
The binding of the ZZW-115-derived compounds to NUPR1 was determined as described by using a high sensitivity isothermal titration calorimeter Auto-iTC200 (MicroCal, Malvern-Panalytical, Malvern, UK). Protein samples and solutions were properly degassed. Experiments were performed with freshly prepared protein solutions at 25 °C. A solution of NUPR1 (20 μM, in sodium phosphate 20 mM, pH 7.0, 2% DMSO) in the calorimetric cell was titrated with a solution of each compound (200 μM, in sodium phosphate 20 mM pH 7.0, 2% DMSO). The inhibitors were dissolved in the same buffer used for the protein. A standard protocol was employed: 19 titrant injections with 2 μL compound solution were programmed with a time spacing of 150 s, a stirring speed of 750 rpm, and a reference power of 10 μcal/s. The heat evolved after each ligand injection was calculated from the integral of the calorimetric signal. The heat due to the binding reaction was obtained as the difference between the reaction heat and the corresponding heat of injection, the latter estimated as a constant value throughout the experiment, and included as an adjustable parameter in the analysis. Control experiments (with the compounds injected into the buffer) were performed under the same experimental conditions.
The association constant (Ka), the enthalpy change (ΔH) and the stoichiometry (n) of the binding reaction were obtained through nonlinear regression analysis of experimental data to a model assuming a single ligand binding site for the protein. Experiments were performed in replicate and data were analyzed using in-house-developed software implemented in Origin 7 (OriginLab).
The interaction between ZZW-115-Derived compounds and NUPR1 was studied by using ITC, the gold-standard technique in binding-affinity determination, to test our theoretical prediction. […] From the thermogram (thermal power as a function of time), the binding isotherm (ligand-normalized heat as a function of the molar ratio) was obtained through integration of the individual heat effect associated with injection of each ligand solution (Figure 3). We used a nonlinear least-squares regression analysis employing a model that considered a single binding site in NUPR1 to estimate binding parameters such as the dissociation constant and the binding enthalpy.

For the next assay, the system named is PDAC001T cells. Kind of assay: Cell viability assay (PrestoBlue). It is filed as cell-based. The following applies: Homo sapiens; PDAC001T (basal subtype), 72 h. The source says: (§1) Primary pancreatic cancer cells PDAC001T, PDAC012T, PDAC021T, PDAC081T, PDAC082T, PDAC087T, PDAC088T, PDAC089T, and PDAC115T were obtained from the PaCaOmics clinical trial registered at www.clinicaltrials.gov (accessed on 2 October 2021) with registration number NCT01692873. We included PDAC samples from both echoendoscopic ultrasound-guided fine-needle (EUS-FNA) biopsies for patients with unresectable tumors and from surgical specimens for patients undergoing surgery. The tumor samples of these patients were used to generate patient-derived xenograft in nude mice as previously reported. Xenografts obtained from mice were split into several small pieces and used for cell culture in a biosafety chamber: after fine mincing, they were treated with collagenase type V (ref C9263; Sigma-Aldrich, St. Louis, MO, USA) and trypsin/EDTA (ref 25200-056; Gibco, Life Technologies, Grand Island, NY, USA) and were suspended in Dulbecco’s modified Eagle’s medium supplemented with 1% w/w penicillin/streptomycin (Gibco, Life Technologies, Paisley, UK) and 10% fetal bovine serum (Lonza Inc., Walkersville, MD, USA). After centrifugation, cells were resuspended in serum-free ductal media adapted from Schreiber et al. at 37 °C in a 5% CO2 incubator. Amplified cells were stored in liquid nitrogen as previously reported. Cells were weaned from antibiotics for ≥48 h before testing.
(§2) Cell viability was evaluated in ten pancreatic cancer cell lines, including MiaPaCa-2, and nine primary pancreatic cancer-derived cell lines: PDAC001T, PDAC012T, PDAC021T, PDAC081T, PDAC082T, PDAC087T, PDAC088T, PDAC089T, and PDAC115T. MiaPaCa-2 cells were obtained from ATCC (Manassas, VA, USA) and maintained in DMEM (Invitrogen, Cergy-Pontoise, France), supplemented with 10% […] at 37 °C with 5% CO2. The primary pancreatic cancer-derived cells were cultured in serum free ductal media (SFDM) following a procedure adapted from those previously described, without antibiotic, and incubated at 37 °C in a 5% CO2 incubator. Cells were plated in 96-well plates (5000 cells/well) overnight. Then, the media were supplemented with the compounds to be tested at 0–100 µM concentration, and the samples were incubated for another additional 72 h before performing the measurement. Cell viability was estimated after addition of PrestoBlue™ reagent (Life Technologies, Paris, France) for 3 h according to the PrestoBlue™ cell viability reagent protocol provided by the supplier. Cell viability was normalized when comparing to untreated cell rates. Experiments were performed in triplicate and each set was repeated three times, with similar results.

For a further assay, the system named is PDAC012T cells. Kind of assay: Cell viability assay (PrestoBlue). It is filed as cell-based. The following applies: Homo sapiens; PDAC012T (classical subtype), 72 h.
Text: as §1, §2

The next assay has as its system PDAC021T cells. The assay can be described thus: Cell viability assay (PrestoBlue). Format: cell-based. The following applies: Homo sapiens; PDAC021T (basal subtype), 72 h.
Text: as §1, §2

The test system of a further assay is PDAC081T cells. The assay can be described thus: Cell viability assay (PrestoBlue). It is filed as cell-based. The settings on record: Homo sapiens; PDAC081T (classical subtype), 72 h.
Text: as §1, §2

The next assay relates to PDAC082T cells. Kind of assay: Cell viability assay (PrestoBlue). Format: cell-based. The following applies: Homo sapiens; PDAC082T (classical subtype), 72 h.
Text: as §1, §2

For another assay, the system named is PDAC087T cells. Kind of assay: Cell viability assay (PrestoBlue). It is filed as cell-based. The following applies: Homo sapiens; PDAC087T (basal subtype), 72 h.
Text: as §1, §2

The test system of another assay is PDAC088T cells. Kind of assay: Cell viability assay (PrestoBlue). Format: cell-based. The following applies: Homo sapiens; PDAC088T (classical subtype), 72 h.
Text: as §1, §2

For the next assay, the system named is PDAC089T cells. The assay can be described thus: Cell viability assay (PrestoBlue). It is filed as cell-based. The settings on record: Homo sapiens; PDAC089T (derived from a liver metastasis), 72 h.
Text: as §1, §2

The next assay concerns PDAC115T cells. Kind of assay: Cell viability assay (PrestoBlue). It is filed as cell-based. The settings on record: Homo sapiens; PDAC115T (basal subtype), 72 h.
Text: as §1, §2

Another assay has as its system MiaPaCa-2 cells. Kind of assay: Cell viability assay (PrestoBlue). The following applies: MiaPaCa-2, 72 h. Format: cell-based, human. How it is done: as §2
The subject of assay [1] is NUPR1 nuclear translocation. The assay can be described thus: NUPR1 nuclear translocation, immunofluorescence in MiaPaCa-2 cells. It is filed as cell-based, human. The following applies: 3 µM, 6 h (Figure 4). The protocol:
Cells (100000 cells/well) were seeded in 12-well plates on coverslips overnight and then treated with 3 μM concentration of each compound for […]. After fixation with 4% paraformaldehyde (Sigma-Aldrich, St. Quentin, Fallavier, France) for 15 min, cells were washed twice with 1x PBS and incubated 1 h with the following antibodies at 1:200 dilution: rabbit anti-NUPR1 primary antibody (homemade) or γH2AX primary antibody (ab26350, Abcam, Paris, France). After the washing steps, samples were incubated 1 h with secondary antibodies at 1:500 dilution (goat anti-rabbit Alexa Fluor 488, A27034, or goat anti-mouse Alexa Fluor 488, A28175, both from Thermo Fisher Scientific, Franklin, MA, USA). ProLong™ Gold Antifade Mountant with DAPI (P36931, Thermo Fisher Scientific) was used to stain the nucleus and seal the samples. Image acquisition of Alexa Fluor 488-derived fluorescence and DAPI staining was detected with an LSM 880 controlled by Zeiss Zen Black 63x lens. Co-localization analysis and measurements in both channels were performed by using the ImageJ Coloc 2 plugin (version 3.0.5).
MiaPaCa-2 cells were treated with representative ZZW-115-derived compounds (3 µM) for 6 h. […] DAPI staining was used to detect cell nuclei, and it was combined with the Alexa 488 fluorescence in the merged panel. […]

A word on the IC50: it is the point on the concentration scale where inhibition reaches its midpoint. Low values mean inhibition by little substance, high ones a need for much substance. As to `FC(F)(F)c1ccc2c(c1)N(CCCN1CCN(CCN3CCOCC3)CC1)c1ccccc1S2` [ZZW-132], the “N (stoichiometry)” value at NUPR1 stood at 1.2 ± 0.1. For the same molecule, the ΔG on NUPR1 is −7.9 ± 0.1 kcal mol^–1. On NUPR1, this molecule yielded a ΔH of 0.3 ± 0.3 kcal mol^–1. In addition, the “−TΔS” value on NUPR1 is listed as −8.2 ± 0.3 kcal mol^–1. For the same molecule, the Ka on NUPR1 worked out at 5.8 ± 0.4 M^–1 × 10^5. Besides, the Kd at NUPR1 was ~1.7 µM and 1.7 µM. Besides, the IC50 was determined as 12.5 µM in the assay on PDAC001T cells; 12.2 µM in the assay on PDAC012T cells; 16.5 µM in the assay on PDAC021T cells; 1.91 µM with PDAC081T cells; 21.1 µM with PDAC082T cells; 16.6 µM with PDAC087T cells. Further, the IC50 is 23.6 µM in the assay with PDAC088T cells; 29.1 µM in the assay on PDAC089T cells; 16.1 µM in the assay with PDAC115T cells; roughly 1 µM in the assay on MiaPaCa-2 cells (Homo sapiens, MIA PaCa-2, 72 h); 1.04 µM in the assay with MiaPaCa-2 cells. In addition, the “ability to hamper NUPR1 nuclear translocation” value in assay [1] is “worst effect in hampering the nuclear translocation efficiency”.
In the case of `CN(C)CCCN1CCN(CCCN2c3ccccc3Sc3ccc(C(F)(F)F)cc32)CC1` [ZZW-142], the “N (stoichiometry)” value on NUPR1 worked out at 1.3 ± 0.1. This molecule also had a ΔG on NUPR1 of −7.8 ± 0.1 kcal mol^–1. On NUPR1, this molecule yielded a ΔH of 0.3 ± 0.3 kcal mol^–1. The “−TΔS” value at NUPR1 is given as −8.1 ± 0.3 kcal mol^–1. The same molecule gave a Ka at NUPR1 of 4.9 ± 0.3 M^–1 × 10^5. Besides, the Kd at NUPR1 stood at 2 ± 0.2 µM. The IC50 in the assay with PDAC001T cells stood at 11.9 µM; in the assay on PDAC012T cells it was 12.8 µM; in the assay with PDAC021T cells it was 17 µM; with PDAC081T cells, 2.27 µM; in the assay with PDAC082T cells it was 23 µM; in the assay on PDAC087T cells, 16.6 µM. For the same molecule, the IC50 was 23.9 µM in the assay with PDAC088T cells; 22.5 µM in the assay with PDAC089T cells; 14.7 µM with PDAC115T cells; roughly 1 µM in the assay with MiaPaCa-2 cells (Homo sapiens, MIA PaCa-2, 72 h); 0.95 µM in the assay on MiaPaCa-2 cells. Further, the “ability to hamper NUPR1 nuclear translocation” value in [1] was “worst effect in hampering the nuclear translocation efficiency”.
As for `FC(F)(F)c1ccc2c(c1)N(CCCN1CCN(CCCN3CCCCC3)CC1)c1ccccc1S2` [ZZW-145], on NUPR1, the “N (stoichiometry)” value was 1.2 ± 0.1. This molecule also had a ΔG on NUPR1 of −6.7 ± 0.1 kcal mol^–1. On NUPR1, the ΔH was found to be 0.7 ± 0.5 kcal mol^–1. In addition, the “−TΔS” value on NUPR1 is reported as −7.4 ± 0.5 kcal mol^–1. On NUPR1, this molecule had a Ka of 0.82 ± 0.9 M^–1 × 10^5. The Kd on NUPR1 came to 11 ± 1 µM. The half-inhibitory concentration (IC50) with PDAC001T cells came out at 2.36 µM; with PDAC012T cells, 2.36 µM; in the assay on PDAC021T cells, 2.33 µM; in the assay with PDAC081T cells, 0.78 µM; in the assay on PDAC082T cells, 2.33 µM; in the assay with PDAC087T cells, 2.37 µM. Besides, the IC50 turned out to be 5 µM in the assay with PDAC088T cells; 6.22 µM with PDAC089T cells; 2.44 µM in the assay on PDAC115T cells; 0.19 µM in the assay on MiaPaCa-2 cells (Homo sapiens, MIA PaCa-2, 72 h).
Take `FC(F)(F)c1ccc2c(c1)N(CCCN1CCN(CCCN3CCOCC3)CC1)c1ccccc1S2` [ZZW-148]: the “N (stoichiometry)” value on NUPR1 was 1.2 ± 0.1. The same molecule had a ΔG at NUPR1 of −6.8 ± 0.1 kcal mol^–1. The molecule also registered a ΔH at NUPR1 of 0.7 ± 0.5 kcal mol^–1. Further, the “−TΔS” value on NUPR1 is reported as −7.5 ± 0.5 kcal mol^–1. Moreover, the Ka at NUPR1 was determined as 1.0 ± 0.1 M^–1 × 10^5. Further, at NUPR1, the Kd is 9.6 ± 1 µM. For the same molecule, the IC50 in the assay on PDAC001T cells was 3.75 µM; in the assay with PDAC012T cells, 3.7 µM; with PDAC021T cells, 4.35 µM; in the assay with PDAC081T cells, 1.11 µM; in the assay on PDAC082T cells, 4.1 µM; in the assay on PDAC087T cells, 6.57 µM. For the same molecule, the IC50 in the assay on PDAC088T cells was 10.7 µM; with PDAC089T cells, 14.8 µM; with PDAC115T cells, 4.37 µM; with MiaPaCa-2 cells (Homo sapiens, MIA PaCa-2, 72 h), 0.47 µM.
